In patent US9751881B2, “Inhibitors of the renal outer medullary potassium channel” (Merck Sharp & Dohme Corp., priority 2013, dated 2017) one finds IC50 data, which are given here for 36 compounds.

Each structure is given as a SMILES string.

One experiment deals with hROMK (hKir1.1) (Homo sapiens (Human), UniProt P48048). Description: Thallium Flux Assay (ROMK channel functional thallium flux, FLIPR-Tetra). It is filed as cell-based. The conditions noted are these: HEK293 cells stably expressing hROMK (hKir1.1); unit not given in Table 4 (IC50 potencies less than 1 μM); read-out: ROMK TI IC50. Summed up: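 HEK293 cells stably expressing hROMK, FluxOR dye-loaded 90 min, then compound 30 min at room temperature. Normalised to 3 μM reference ROMK inhibitor as % fluorescence change.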
Chain of hROMK (hKir1.1) (P48048 whole entry): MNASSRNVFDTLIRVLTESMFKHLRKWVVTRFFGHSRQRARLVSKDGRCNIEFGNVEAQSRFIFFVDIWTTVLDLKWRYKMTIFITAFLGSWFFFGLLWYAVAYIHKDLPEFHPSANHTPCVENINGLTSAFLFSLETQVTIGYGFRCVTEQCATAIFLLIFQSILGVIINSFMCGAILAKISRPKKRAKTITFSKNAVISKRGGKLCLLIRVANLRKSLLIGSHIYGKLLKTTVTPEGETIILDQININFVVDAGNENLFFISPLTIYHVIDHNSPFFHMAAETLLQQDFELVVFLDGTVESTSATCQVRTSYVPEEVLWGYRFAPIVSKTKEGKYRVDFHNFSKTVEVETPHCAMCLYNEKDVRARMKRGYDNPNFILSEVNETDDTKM
In general, IC50 refers to the concentration at which inhibition is half-maximal. `Cc1c([C@@H](N)CN2CCC3(CC2)CCN(c2ccc(C#N)cn2)C3)ccc2c1COC2=O` [Example 79, (R)-6-(8-(2-amino-2-(4-methyl-1-oxo-1,3-dihydroisobenzofuran-5-yl)ethyl)-2,8-diazaspiro[4.5]decan-2-yl)nicotinonitrile]: the IC50 stood at 14.1 nM.

As to `Cc1c([C@@H](O)CN2CCC3(CC2)CCN(c2ccc(-n4ccnn4)cc2)C3)ccc2c1COC2=O` [Example 80], the IC50 was 63.5 nM.

For the compound `Cc1cc(N2CCC3(CCN(C[C@H](O)c4ccc5c(c4C)COC5=O)CC3)C2)cnc1C#N` [Example 81], the concentration for half-maximal inhibition (IC50) turned out to be 10.1 nM.

For `COc1cc(N2CCC3(CCN(C[C@H](O)c4ccc5c(c4C)COC5=O)CC3)C2)ncc1C#N` [Example 82], the 50% inhibitory concentration (IC50) was 32.8 nM.

As to `Cc1c([C@@H](O)CN2CCC3(CC2)CCN(c2cnc(C#N)cn2)C3)ccc2c1COC2=O` [Example 83], the IC50 turned out to be 4.7 nM.

Regarding `Cc1c([C@@H](O)CN2CCC3(CC2)CCN(c2cc(C#N)ccc2F)C3)ccc2c1COC2=O` [Example 84], the IC50 came out at 255 nM.

Consider `COc1ccc(C#N)cc1N1CCC2(CCN(C[C@H](O)c3ccc4c(c3C)COC4=O)CC2)C1` [Example 85], for which the IC50 was 234 nM.

Turning to `COc1cc(C#N)ccc1N1CCC2(CCN(C[C@H](O)c3ccc4c(c3C)COC4=O)CC2)C1` [Example 86], the IC50 is 50.4 nM.

On to `Cc1c([C@@H](O)CN2CCC3(CC2)CCN(c2ccc(C#N)nc2)C3)ccc2c1COC2=O` [Example 87], for which the IC50 was found to be 88.7 nM.

For `CC1=CS(=O)(=O)c2ccc(N3CCC4(CCN(C[C@H](O)c5ccc6c(c5C)COC6=O)CC4)C3)cc21` [Example 88], the IC50 is 353 nM.

Turning to `Cc1c([C@@H](O)CN2CCC3(CC2)CCN(c2cccc(C#N)c2)C3)ccc2c1COC2=O` [Example 89], the IC50 worked out at 118 nM.

Take `Cc1c([C@@H](O)CN2CCC3(CC2)CCN(c2ncc(C#N)s2)C3)ccc2c1COC2=O` [Example 90]: the IC50 is 6.7 nM.

As for `Cc1c([C@@H](O)CN2CCC3(CC2)CN(c2ccc(S(C)(=O)=O)cn2)C(=O)O3)ccc2c1COC2=O` [Example 91, (R)-8-(2-hydroxy-2-(4-methyl-1-oxo-1,3-dihydroisobenzofuran-5-yl)ethyl)-3-(5-(methylsulfonyl)pyridin-2-yl)-1-oxa-3,8-diazaspiro[4.5]decan-2-one], the IC50 was 208 nM.

In the case of `Cc1c([C@@H](O)CN2CCC3(CC2)CN(c2cnc(S(C)(=O)=O)cn2)C(=O)O3)ccc2c1COC2=O` [Example 92, (R)-8-(2-Hydroxy-2-(4-methyl-1-oxo-1,3-dihydroisobenzofuran-5-yl)ethyl)-3-(5-(methylsulfonyl)pyrazin-2-yl)-1-oxa-3,8-diazaspiro[4.5]decan-2-one], the IC50 is 125 nM.

As to `CCS(=O)(=O)c1cnc(N2CC3(CCN(C[C@H](O)c4ccc5c(c4C)COC5=O)CC3)OC2=O)cn1` [Example 93, (R)-3-(5-(Ethylsulfonyl)pyrazin-2-yl)-8-(2-hydroxy-2-(4-methyl-1-oxo-1,3-dihydroisobenzofuran-5-yl)ethyl)-1-oxa-3,8-diazaspiro[4.5]decan-2-one], the IC50 worked out at 148 nM.

Take `Cc1c([C@@H](O)CN2CCC3(CC2)CN(c2ccc(S(C)(=O)=O)cc2)C(=O)O3)ccc2c1COC2=O` [Example 94, (R)-8-(2-Hydroxy-2-(4-methyl-1-oxo-1,3-dihydroisobenzofuran-5-yl)ethyl)-3-(4-(methylsulfonyl)phenyl)-1-oxa-3,8-diazaspiro[4.5]decan-2-one]: the IC50 worked out at 159 nM.

`COc1cc(N2CC3(CCN(C[C@H](O)c4ccc5c(c4C)COC5=O)CC3)OC2=O)ncc1C#N` [Example 95, (R)-6-(8-(2-Hydroxy-2-(4-methyl-1-oxo-1,3-dihydroisobenzofuran-5-yl)ethyl)-2-oxo-1-oxa-3,8-diazaspiro[4.5]decan-3-yl)-4-methoxynicotinonitrile]: the IC50 was determined as 84 nM.

For `Cc1c([C@@H](O)CN2CCC3(CC2)CCN(c2ccc(S(C)(=O)=O)cn2)C3=O)ccc2c1COC2=O` [Example 96, (R)-8-(2-Hydroxy-2-(4-methyl-1-oxo-1,3-dihydroisobenzofuran-5-yl)ethyl)-2-(5-(methylsulfonyl)pyridin-2-yl)-2,8-diazaspiro[4.5]decan-1-one], the IC50 was 86 nM.

As for `Cc1c([C@@H](O)CN2CCC3(CC2)OCCN(c2ccc(S(C)(=O)=O)cn2)C3=O)ccc2c1COC2=O` [Example 97, (R)-9-(2-Hydroxy-2-(4-methyl-1-oxo-1,3-dihydroisobenzofuran-5-yl)ethyl)-4-(5-(methylsulfonyl)pyridin-2-yl)-1-oxa-4,9-diazaspiro[5.5]undecan-5-one], the IC50 was 187 nM.

In the case of `Cc1c([C@@H](O)CN2CCC3(CC2)CN(c2ccc(S(C)(=O)=O)cn2)CCO3)ccc2c1COC2=O` [Example 98, (R)-5-(1-Hydroxy-2-(4-(5-(methylsulfonyl)pyridin-2-yl)-1-oxa-4,9-diazaspiro[5.5]undecan-9-yl)ethyl)-4-methylisobenzofuran-1(3H)-one], the IC50 is 376 nM.

With `Cc1c([C@@H](O)CN2CCC3(CC2)CN(c2ccc(S(C)(=O)=O)nc2)CCO3)ccc2c1COC2=O` [Example 99, (R)-5-(1-Hydroxy-2-(4-(6-(methylsulfonyl)pyridin-3-yl)-1-oxa-4,9-diazaspiro[5.5]undecan-9-yl)ethyl)-4-methylisobenzofuran-1(3H)-one], the IC50 came to 168 nM.

`Cc1c([C@@H](O)CN2CCC3(CC2)CN(c2ccc(C#N)cn2)CCO3)ccc2c1COC2=O` [Example 101, (R)-6-(9-(2-Hydroxy-2-(4-methyl-1-oxo-1,3-dihydroisobenzofuran-5-yl)ethyl)-1-oxa-4,9-diazaspiro[5.5]undecan-4-yl)nicotinonitrile]: the IC50 stood at 39.6 nM.

On to `COc1cc(N2CC3(CCN(C[C@H](O)c4ccc5c(c4C)COC5=O)CC3)OCC2=O)ncc1C#N` [Example 102, (R)-6-(9-(2-Hydroxy-2-(4-methyl-1-oxo-1,3-dihydroisobenzofuran-5-yl)ethyl)-3-oxo-1-oxa-4,9-diazaspiro[5.5]undecan-4-yl)-4-methoxynicotinonitrile], for which the IC50 came to 16.7 nM.

For `Cc1c([C@@H](O)CN2CCC3(CC2)CCN(c2ccc(S(C)(=O)=O)nc2)CC3)ccc2c1COC2=O` [Example 103, (R)-5-(1-hydroxy-2-(9-(6-(methylsulfonyl)148yridine-3-yl)-3,9-diazaspiro[5.5]undecan-3-yl)ethyl)-4-methylisobenzofuran-1(3H)-one], the IC50 was 563 nM.

Regarding `Cc1c([C@@H](O)CN2CCC3(CC2)CCN(c2ccc(C#N)nn2)CC3)ccc2c1COC2=O` [Example 105, (R)-6-(9-(2-hydroxy-2-(4-methyl-1-oxo-1,3-dihydroisobenzofuran-5-yl)ethyl)-3,9-diazaspiro[5.5]undecan-3-yl)pyridazine-3-carbonitrile], the IC50 was 13.5 nM.

As for `Cc1c(C(O)CN2CCC3(CC2)CCN(c2cc(C#N)ncn2)CC3)ccc2c1COC2=O` (stereo not drawn) [Example 106], the IC50 came out at 26.3 nM.

On to `Cc1c(C(O)CN2CCC3(CC2)CCN(c2ncccc2C#N)CC3)ccc2c1COC2=O` (stereo not drawn) [Example 107], for which the IC50 is 180 nM.

In the case of `Cc1cc(C#N)cnc1N1CCC2(CCN(CC(O)c3ccc4c(c3C)COC4=O)CC2)CC1` (stereo not drawn) [Example 108], the IC50 came to 255 nM.

As to `Cc1c(C(O)CN2CCC3(CC2)CCN(c2ncc(C#N)cn2)CC3)ccc2c1COC2=O` (stereo not drawn) [Example 109], the IC50 came out at 14.5 nM.

With `Cc1c(C(O)CN2CCC3(CC2)CCN(c2nccnc2C#N)CC3)ccc2c1COC2=O` (stereo not drawn) [Example 110], the IC50 turned out to be 135 nM.

As to `Cc1c(C(O)CN2CCC3(CC2)CCN(c2cnc(C#N)cn2)CC3)ccc2c1COC2=O` (stereo not drawn) [Example 111], the IC50 came out at 9.62 nM.

Turning to `Cc1cc(C#N)c(N2CCC3(CCN(CC(O)c4ccc5c(c4C)COC5=O)CC3)CC2)nn1` (stereo not drawn) [Example 112], the IC50 is 161 nM.

Turning to `Cc1c(C(O)CN2CCC3(CC2)CCN(c2ncc(C#N)cc2F)CC3)ccc2c1COC2=O` (stereo not drawn) [Example 113], the IC50 is 473 nM.

For the compound `Cc1nc(N2CCC3(CCN(CC(O)c4ccc5c(c4C)COC5=O)CC3)CC2)ccc1C#N` (stereo not drawn) [Example 114], the IC50 is 136 nM.

`Cc1c([C@@H](O)CN2CCC3(CC2)CCN(c2ccnc(-c4ccoc4)n2)C3=O)ccc2c1COC2=O` [Example 115, (R)-2-(2-(furan-3-yl)pyrimidin-4-yl)-8-(2-hydroxy-2-(4-methyl-1-oxo-1,3-dihydroisobenzofuran-5-yl)ethyl)-2,8-diazaspiro[4.5]decan-1-one]: the IC50 amounted to 286 nM.

Staying with this experiment, now noted: read-out: ROMK TI IC50.
On to `Cc1c([C@@H](O)CN2CCC3(CC2)CCN(c2ccc(C#N)cn2)CC3)ccc2c1COC2=O` [Example 104], for which the IC50 amounted to 26 nM.
